What all share (format): in vivo
The subject of test [1] is Abuthilon theophrasti (ABUTH). Description: Post-emergence action, greenhouse pot test, visual scoring: ABUTH. As to conditions: 10 DAT. On the procedure: (§1) Seeds or rhizome pieces of mono- and dicotyledonous harmful and useful plants were placed in peat pots (diameter 4 cm) filled with sandy loam and then covered with soil. The pots were kept in a greenhouse under optimum conditions. In addition, harmful plants encountered in paddy rice cultivation were cultivated in pots with a water level 2 cm above the soil surface.
(§2) About three weeks after the start of the cultivation, the test plants were treated at the 2- to 3-leaf stage. The herbicides, formulated as powder or liquid concentrates, were, either alone or in the combinations according to the invention, sprayed in various dosages on to the green parts of the plants using an application rate of 600 l of water/ha (converted). For further cultivation of the plants, the pots were then again kept under optimum conditions in a greenhouse.
(§3) The visual scoring of the herbicidal effects was carried out in intervals up to 21 days after the treatment. Scoring was carried out in percent in comparison to the untreated control plants. 0%=no herbicidal activity, 100%=complete herbicidal activity=complete kill.
(§4) The percentages from the treatments with the herbicides alone (=individual application) and with the combinations according to the invention (=mixtures) were employed to calculate interactions using the method of Colby. When the observed efficacies of the mixtures exceed the formal sum of the values of the tests with individual applications, they also exceed the expected value according to Colby, which is calculated using the formula below (cf. S. R. Colby; in Weeds 15 (1967) pp. 20 to 22):
(§5) Here: • A, B=activity of components A and B in percent at a dosage of a and b g of ai/ha (=gramm of active substance per hectare), respectively. • E=expected value in % at a dosage of a+b g of ai/ha.
(§6) The combinations according to the invention of herbicides from group (A) with herbicides from group (B) were tested on a broad spectrum of important harmful plants (weed grasses, broad-leaved weeds/Cyperaceae) and useful plants: Triticum aestivum (TRZAS), Stellaria media (STEME), Lolium multiflorum (LOLMU), Veronica persica (VERPE), Alopecurus myosuroides (ALOMY), Matricaria inodora (MATIN), Brassica napus (BRSNW), Viola tricolor (VIOTR), Avena fatua (AVEFA), Amaranthus retroflexus (AMARE), Zea mays (ZEAMX), Pharbitis purpurea (PHBPU), Setaria viridis (SETVI), Fallopia (ex Polygonum) convolvulus (POLCO), Echinochloa crusgaffi (ECHCG), Abuthilon theophrasti (ABUTH), Cyperus esculentus (CYPES), Oryza sativa (ORYSA).
(§7) Of particular interest are the results shown in the tables (Tab.) below, where the following key is used: • (1) EPPO code (former Bayer code) for the treated plant (see above) • (2) Time of scoring: DAT (days after treatment) • (3) Component A tested (identifying number) • (4) Component B tested (identifying number) • (5) Dosage component A [g of ai/ha] • (6) Dosage component B [g of ai/ha] • (7) % activity found • (8) E value (calculated according to Colby; see above) • (9) Comments: “SYNERGY” =synergistic interaction (E value<% activity found); “SAFENING”=safener action on useful plant (E value>% activity found)

Test [2] has as its system Amaranthus retroflexus (AMARE). The experiment in a line: Post-emergence action, greenhouse pot test, visual scoring: AMARE. Here is the method: as §1, §2, §3, §4, §5
Test [3] relates to Pharbitis purpurea (PHBPU). The experiment in a line: Post-emergence action, greenhouse pot test, visual scoring: PHBPU. Here is the method:
as §1, §2, §3, §4, §5, §6, §7

For test [4], the system named is Fallopia (ex Polygonum) convolvulus (POLCO). The experiment in a line: Post-emergence action, greenhouse pot test, visual scoring: POLCO. As to conditions: 21 DAT. Here is the method: as §1, §2, §3, §4, §5, §6, §7
In test [5] the test system is Lolium multiflorum (LOLMU). Description: Post-emergence action, greenhouse pot test, visual scoring: LOLMU. As to conditions: for % activity found: 10 DAT; for (7) % activity found: 21 DAT. Here is the method:
as §1, §2, §3, §4, §5, §6, §7

Another test relates to Stellaria media (STEME). Description: Post-emergence action, greenhouse pot test, visual scoring: STEME. Particulars: 10 DAT. On the procedure: as §1, §2, §3, §4, §5, §6, §7
The next test relates to Avena fatua (AVEFA). Description: Post-emergence action, greenhouse pot test, visual scoring: AVEFA. On the procedure:
as §1, §2, §3, §4, §5, §6, §7

For test [6], the system named is Echinochloa crusgaffi (ECHCG). The experiment in a line: Post-emergence action, greenhouse pot test, visual scoring: ECHCG. As to conditions: for % activity found: 21 DAT; for (7) % activity found: 10 DAT. On the procedure:
as §1, §2, §3, §4, §5, §6, §7

In test [7] the test system is Matricaria inodora (MATIN). Description: Post-emergence action, greenhouse pot test, visual scoring: MATIN. On the procedure:
as §1, §2, §3, §4, §5

The next test relates to Veronica persica (VERPE). Description: Post-emergence action, greenhouse pot test, visual scoring: VERPE. On the procedure: as §1, §2, §3, §4, §5, §6, §7
Test [8] concerns Alopecurus myosuroides (ALOMY). Description: Post-emergence action, greenhouse pot test, visual scoring: ALOMY. As to conditions: 21 DAT. On the procedure: as §1, §2, §3, §4, §5
Test [9] relates to Triticum aestivum (TRZAS). The experiment in a line: Post-emergence action, greenhouse pot test, visual scoring: TRZAS. As to conditions: 21 DAT. On the procedure:
as §1, §2, §3, §4, §5, §6, §7

Test [10] deals with Cyperus esculentus (CYPES). Description: Post-emergence action, greenhouse pot test, visual scoring: CYPES. As to conditions: rate (6) 18. On the procedure:
as §1, §2, §3, §4, §5

The subject of the next test is Setaria viridis (SETVI). The experiment in a line: Post-emergence action, greenhouse pot test, visual scoring: SETVI. Particulars: 21 DAT. Here is the method: as §1, §2, §3, §4, §5, §6, §7

For the molecule `CCSC(=O)N1CCCCCC1` [B6-7, S-ethyl hexahydro-1H-azepine-1-carbothioate], the “% activity found” value in [1] (dose (6) 300) is 0%; in test [1] (dose (6) 900), 0%; in [2] (10 DAT, dose (6) 300), 0%; in test [2] (10 DAT, dose (6) 900) it was 0%; in test [2] (21 DAT, dose (6) 300) it was 0%; in [2] (21 DAT, dose (6) 900) it was 0%. Besides, the “% activity found” value in test [3] (10 DAT, dose (6) 300) worked out at 0%; in test [3] (10 DAT, dose (6) 900), 0%; in test [3] (21 DAT, dose (6) 300), 0%; in test [3] (21 DAT, dose (6) 900), 0%; in test [4] (dose (6) 300) it was 0%; in test [4] (dose (6) 900), 0%. Also, the “% activity found” value came to 20% in test [5] (dose (6) 900); 0% in the test on Stellaria media (STEME) (dose (6) 300); 0% in the test on Stellaria media (STEME) (dose (6) 900); 0% with Avena fatua (AVEFA) (21 DAT, dose (6) 300); 0% in test [6] (dose (6) 300); 0% in test [6] (dose (6) 900). For the same molecule, the “% activity found” value in test [7] (10 DAT, dose (6) 900) is on record as 20%; in test [7] (21 DAT, dose (6) 300) it was 30%; in [7] (21 DAT, dose (6) 900), 30%; in the test with Veronica persica (VERPE) (10 DAT, dose (6) 900), 0%; in the test with Veronica persica (VERPE) (21 DAT, dose (6) 300), 0%.

As to `COc1cc(OC)nc(NC(=O)NS(=O)(=O)Nc2ccccc2C(=O)C2CC2)n1` [B7-7, N-[[[2-(cyclopropylcarbonyl)phenyl]amino]sulfonyl]-N′-(4,6-dimethoxy-2-pyrimidinyl)urea], the “(7) % activity found” value in test [8] (rate (6) 18) is 30%; in [8] (rate (6) 54), 40%; in test [9] (rate (6) 18) it was 0%; in test [9] (rate (6) 54) it was 0%; in test [5] (rate (6) 18), 0%; in [5] (rate (6) 54), 0%. The “(7) % activity found” value in test [10] (10 DAT) is 0%; in test [10] (21 DAT), 40%; with Setaria viridis (SETVI) (rate (6) 18) it was 20%; in the test on Setaria viridis (SETVI) (rate (6) 54) it was 20%; in the test with Avena fatua (AVEFA) (21 DAT, rate (6) 18), 0%; in the test on Avena fatua (AVEFA) (21 DAT, rate (6) 54), 10%. For the same molecule, the “(7) % activity found” value in test [6] (rate (6) 18) and in [6] (rate (6) 54) was 0% in each case. The “% activity found” value in [5] (dose (6) 18) was 0%; in [5] (dose (6) 54), 0%; in the test on Avena fatua (AVEFA) (10 DAT, dose (6) 18), 0%; in the test with Avena fatua (AVEFA) (10 DAT, dose (6) 54) it was 30%.

(Values after US20100099564A1, “HERBICIDE COMBINATION COMPRISING DIMETHOXYTRIAZINYL-SUBSTITUTED DIFLUOROMETHANESULFONYLANILIDES” (BAYER CROPSCIENCE AG, priority 2008, published 2010).)
